Source: paper doi:10.1101/2025.09.04.674342, “Tandem association of CLOCK:BMAL1 complexes on DNA enables recruitment of CBP/p300 through multivalent interactions” (bioRxiv, 2025)
No end group written: not given here.

Columns and labels:
[1] = molecular target: T1, CBP KIX (Mus musculus, UniProt P45481); experiment: Fluorescence polarization competition assay, CBP KIX:TAD WT titrated with KG-501; type: binding
T1 construct: mouse CBP (UniProt P45481) KIX (residues 586–672); made in house; host or cells: Rosetta (DE3) E. coli
Procedure: TAMRA fluorescent probe covalently attached to the N-terminus; the C-terminus of the Δswitch peptide was amidated, while the others were left as a free carboxyl group. Equilibrium binding assays (Fig. 5b) with CBP KIX, TAZ1, and TAZ2 and competition assay with CBP KIX:TAD WT titrated with KG-501 (Fig. 5i) were performed in 10 mM MES pH 6.5, 50 mM NaCl and 0.05% (v/v) Tween-20. Concentrated stocks of BMAL1 TAD probes were stored between 15–200 μM at −70°C and diluted in assay buffer to 50 nM alone (binding assays) or to 10 nM bound to 2 μM CBP KIX (competition assay) and in the presence of increasing concentrations of KG-501. Plates were incubated at room temperature for 10–20 minutes prior to analysis. Binding was monitored by changes in fluorescence polarization with an EnVision 2103 multilabel plate reader (Perkin Elmer) with excitation at 531 nm and emission at 595 nm. The Hill coefficient and equilibrium binding dissociation constant (KD) were calculated by fitting the dose-dependent change in millipolarization (Δmp) to a one-site specific binding model (binding assays) or an [inhibitor] vs. response (three parameters) model (competition assay) in Prism (GraphPad). Data shown for equilibrium binding assays are from a representative experiment (n=4 replicates) of three independent assays (Fig. 5b). […]

[2] = system: CREB-induced Per1-luc activation; experiment: Per1-luc reporter in HEK293T cells after forskolin stimulation; type: cell-based, human; settings: compounds 16 hours, 10 μM forskolin 2 hours before harvest, n = 3, Fig. 5g
Procedure: HEK293T cells were purchased from ATCC (cat. #CRL-3216) were cultured in 10% DMEM (i.e. 10% (v/v) FBS) and 1X penicillin-streptomycin (Thermo Fisher) at 37°C in an incubator humidified with 5% CO2. Forskolin (CAS 66575-29-9, cat. #F3917, Sigma Aldrich), KG-501/naphthol-AS-E-phosphate (CAS 18228-17-6, cat. #70485, Sigma Aldrich), XX-650–23 (CAS 117739-40-9, cat. #AOB31725, Aobious), and 666–15 (CAS 1433286-70-4, cat. #AMBH97F07B56, Sigma Aldrich) were stored as recommended by the manufacturer and assessed by 1D NMR before use.
For Per1-luc reporter assays with inhibitors, 48-well plates with HEK293T cells were transfected with LT-1 (Mirus) and the following plasmids in duplicate: 5 ng pGL3 Per1-luciferase[8] and 395 ng empty pcDNA4 vector; for CLOCK:BMAL1 activity, 5 ng pGL3 Per1-luciferase, 100 ng pSG5 Clock, 100 ng pSG5 Bmal1, and 195 ng empty pcDNA4 vector. Cells were treated with compounds as indicated or 1% DMSO 24 hours after transfection for 16 hours prior to harvesting. For forskolin treatment, 10 μM forskolin was added 2 hours prior to harvesting. Cells were lysed in Passive Lysis Buffer ([…]) according to the protocol and luciferase activity was measured with Bright-Glo reagent ([…]) on an EnVision plate reader (Perkin Elmer). Each reporter assay was repeated at least three times.

[3] = system: CREB; set-up: method as in PMID 19810079, PMID 27211267; settings: cited from earlier work
[4] = cited from earlier work
[5] = molecular target: WT CBP KIX; experiment: Isothermal titration calorimetry, CBP KIX WT with BMAL1 TAD; type: binding, mouse
Procedure: (§1) ITC measurements were obtained as previously described. Briefly, proteins were extensively dialyzed at 4°C in 10 mM MES pH 6.5, 50 mM NaCl using a 2 kDa molecular weight cutoff filter dialysis tubing (Spectrum Labs) prior to collecting ITC data. ITC was performed on a MicroCal VP-ITC calorimeter at 25°C with a stir speed of 177 rpm, reference power of 10 μCal/sec and 10 μL injection sizes. Protein ratios for the cell and syringe for the ITC assays (3 independent runs for each complex) were 220–230 μM CBP KIX WT or 3mut titrated into 20–25 μM BMAL1 TAD WT or L606A/L607A as indicated (stoichiometry (n) = 0.8–1.1). All data were best fit by a one-site binding model using Origin software.

[6] = system: 3mut CBP KIX (Y650A, A654Q, Y658A); experiment: Isothermal titration calorimetry, 3mut CBP KIX with BMAL1 TAD; type: binding, mouse; settings: same conditions as WT KIX; Fig. 4b
Procedure: as §1

[7] = system: 3mut CBP KIX (Y650A, A654Q, Y658A); experiment: 15N-1H HSQC NMR titration of 15N BMAL1 TAD with 3mut CBP KIX; type: binding, mouse; settings: versus WT KIX
Procedure: (§2) NMR experiments were conducted on a Varian INOVA 600-MHz spectrometer equipped with ^1H, ^13C, ^15N triple resonance, Z-axis pulsed field gradient cryoprobe. All NMR data were collected at 25°C. NMR data were processed using NMRPipe/NMRDraw[79]. ^15N-^1H HSQC spectra CBP KIX were performed in 330 μL volume in a Shigemi tube with 100 μM ^15N CBP KIX in NMR buffer (10 mM MES pH 6.5, 50 mM NaCl) and 10% (v/v) D2O in the presence of stepwise additions of concentrated stocks of BMAL1 TAD or truncated peptides. ^15N-^1H HSQC spectra of BMAL1 TAD WT or L606A/L607A were performed in 330 μL volume in a Shigemi tube with 100 μM ^15N BMAL1 TAD in NMR buffer (10 mM MES pH 6.5, 50 mM NaCl) and 10% (v/v) D2O in the presence of stepwise additions of CBP KIX (WT or 3mut), TAZ1, or TAZ2, followed by concentration in an Amicon Ultra centrifugal filter with a 3 kDa MWCO (Merck Millipore). Chemical shift assignments of BMAL1 TAD (entry 25280) and CBP KIX (entry 6750) were obtained from the Biological Magnetic Resonance Data Bank (BMRB); CBP KIX assignments at pH 5.5 were transferred to the spectrum at pH 6.5 via a 3-step pH titration. Titration data for protein interactions were analyzed with NMRViewJ (One Moon Scientific) using chemical shift perturbations defined by the equation ΔδTOT = [(Δδ^1H)^2 + (χ(Δδ^15N)^2]^½ and normalized with the scaling factor χ = 0.5[80].

[8] = molecular target: T1, CBP KIX; experiment: 15N-1H HSQC NMR titration of 15N CBP KIX with BMAL1 TAD peptides; type: binding; settings: for binding of locked switch peptides to CBP KIX by pattern of CSPs: Fig. 3d
Procedure: as §2

[9] = molecular target: T1, CBP KIX; experiment: 15N-1H HSQC NMR titration of 15N BMAL1 TAD L606A/L607A with CBP KIX; type: binding; settings: versus WT TAD with WT KIX
Procedure: as §2

[10] = molecular target: T2, CBP TAZ1 (Mus musculus, UniProt P45481); experiment: 15N-1H HSQC NMR titration of 15N BMAL1 TAD L606A/L607A with CBP TAZ1; type: binding; settings: 100 μM 15N TAD L606A/L607A; Fig. 6e,f
T2 construct: Mouse CBP (UniProt P45481) TAZ1 (residues 340–439); made in house; host or cells: Rosetta (DE3) E. coli
Procedure: as §2

[11] = molecular target: T3, CBP TAZ2 (Mus musculus, UniProt P45481, C1776A/C1784A/C1827A/C1828A); experiment: 15N-1H HSQC NMR titration of 15N BMAL1 TAD L606A/L607A with CBP TAZ2; type: binding; settings: 100 μM 15N TAD L606A/L607A; Fig. 6g,h
T3 construct: Mouse CBP (UniProt P45481) TAZ2 (residues 1764–1855); MBP; made in house; host or cells: E. coli (BL21)
T3 sequence (P45481 1764-1855 C1776A/C1784A/C1827A/C1828A): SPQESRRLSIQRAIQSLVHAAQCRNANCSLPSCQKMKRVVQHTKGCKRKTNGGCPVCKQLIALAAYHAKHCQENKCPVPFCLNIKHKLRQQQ
Procedure: as §2

T1 sequence (P45481 586-672): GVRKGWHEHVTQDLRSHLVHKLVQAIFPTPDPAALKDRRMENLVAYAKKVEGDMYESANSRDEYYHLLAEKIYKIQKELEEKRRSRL
T2 sequence (P45481 340-439): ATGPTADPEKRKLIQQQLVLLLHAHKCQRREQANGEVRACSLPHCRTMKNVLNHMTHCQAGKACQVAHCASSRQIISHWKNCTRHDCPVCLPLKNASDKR

Compound: O=C(Nc1ccc(Cl)cc1)c1cc2ccccc2cc1OP(=O)(O)O [KG-501, naphthol-AS-E-phosphate]
- IC50 ([1]; 2 μM CBP KIX bound to 10 nM [5,6] TAMRA-labeled minimal BMAL1 TAD probe, 10 mM MES pH 6.5, 50 mM NaCl, 0.05% Tween-20, mean from 2 replicates done in duplicate, read-out: IC50, displacement of CBP KIX from TAD probe): 222 ± 22.5 µM
- Ki ([1]; KD = 2 μM set for the BMAL1 TAD-CBP KIX interaction, read-out: Ki calculated from the Cheng-Prusoff equation): 111 µM
- Activation of Per1-luc reporter after forskolin (Fsk) stimulation [2]: moderately decreased potency relative to the others

Compound: N#Cc1ccc(NC(=O)c2cc3ccccc3cc2O)cc1 [XX-650–23]
- activity in cells relative to KG-501 [3]: more active in cells
- solubility [4]: poor solubility

Compound: BMAL1 TAD: recombinant mouse BMAL1 transactivation domain, residues 579–626
- Kd ([5]; 220–230 μM CBP KIX titrated into 20–25 μM BMAL1 TAD, 10 mM MES pH 6.5, 50 mM NaCl, 25°C, 3 independent runs, one-site model, read-out: KD by ITC): ~2 µM
- binding by ITC (in words) [6]: disrupted
- reduction of affinity by mutation of the CBP KIX c-Myb site [7]: about 100 fold

Compound: FSDLPWAL [P625A switch, trans-locked switch peptide with P625A substitution]
- binding of locked switch peptides to CBP KIX by pattern of CSPs ([8]; 100 μM 15N CBP KIX): can bind at the MLL1 site

Compound: FSDLPWPL-OH [switch]
- KD for the CBP KIX domain estimated by fitting concentration-dependent CSPs ([8]; 100 μM 15N CBP KIX, 10 mM MES pH 6.5, 50 mM NaCl, 25°C, Fig. 3b): hundreds of micromolar
- Kd ([8]; 100 μM 15N CBP KIX, 10 mM MES pH 6.5, 50 mM NaCl, 25°C, Fig. 3b, read-out: KD for the CBP KIX domain estimated by fitting concentration-dependent CSPs): > 500 µM

Compound: FSDLPWdmPL [P625dmP-switch, cis-locked switch peptide with 5,5-dimethyl L-proline at position 625]
- binding of locked switch peptides to CBP KIX by pattern of CSPs ([8]; 100 μM 15N CBP KIX): can bind at the MLL1 site

Compound: TAD LL/AA: recombinant BMAL1 TAD (579–626) with L606A/L607A mutation of the IXXLL motif
- binding by ITC (in words) ([5]; same conditions as WT TAD, Fig. 4e): did not yield any binding heats
- reduction of affinity for CBP KIX by mutation in the BMAL1 TAD helix [9]: about 100 fold
- changes of the 15N-1H HSQC spectrum on addition of CBP TAZ1 [10]: almost no changes to the spectrum
- interaction with CBP TAZ2 by 15N-1H HSQC [11]: retained interaction

Compound: linker-switch: residues 613–626 of mouse BMAL1 (LGGPVDFSDLPWPL)
- apparent affinity for CBP KIX relative to the isolated switch peptide ([8]; 100 μM 15N CBP KIX titrated with peptide, Fig. 3a): modestly higher apparent affinity
- site of chemical shift perturbations on CBP KIX ([8]; peptide 100 μM, 1:1 stoichiometry with 15N CBP KIX, Fig. 2e): perturbs the MLL1 site
